Each structure is given as a SMILES string.

Format in all cases: cell-based
Assay [1] deals with T1, ZAC (Homo sapiens, UniProt Q401N2).
T1 sequence (Q401N2 26-412): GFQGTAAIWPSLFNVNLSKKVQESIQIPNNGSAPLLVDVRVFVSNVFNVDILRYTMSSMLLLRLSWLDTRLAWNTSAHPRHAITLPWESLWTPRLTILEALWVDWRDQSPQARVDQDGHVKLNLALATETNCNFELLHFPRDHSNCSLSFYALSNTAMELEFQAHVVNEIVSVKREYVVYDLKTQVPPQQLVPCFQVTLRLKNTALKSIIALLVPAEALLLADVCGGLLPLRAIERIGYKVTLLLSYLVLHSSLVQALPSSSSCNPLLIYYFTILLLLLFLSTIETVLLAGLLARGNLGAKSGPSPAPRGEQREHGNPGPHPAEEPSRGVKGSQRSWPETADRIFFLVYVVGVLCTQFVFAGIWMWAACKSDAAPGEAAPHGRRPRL
Put plainly: TEVC recordings, spontaneous ZAC activity in Xenopus oocytes. To be noted: for IC50: block of spontaneous ZAC activity (leak current), TEVC. As to the method:
(§1) The cDNAs for the various WT and chimeric CLR subunits were linearized and subsequently transcribed and capped mMessage mMachine T7 RNA transcription kit (Ambion, Waltham, MA). Different amounts of cRNA mixtures were injected for ZAC (9.2–36.8 nL in a concentration of 0.05 μg/μL), […] nAChR (9.2–36.8 nL in a concentration of 0.1 μg/μL of each subunit in a ratio of 1:1), hα1 GlyR (9.2–36.8 nL in a concentration of 0.05 μg/μL), hα1β2γ2s GABAAR (9.2–36.8 nL in a concentration of 0.05 μg/μL of each subunit in a ratio of 1:1:3), m5-HT3AR (9.2–36.8 nL in a concentration of 0.05 μg/μL), m5-HT3A/ZAC (9.2–36.8 nL in a concentration of 0.207 μg/μL), and ZAC/hai-Gly (9.2–36.8 nL in a concentration of 0.206 μg/μL). Oocytes were incubated in a sterile modified Barth’s solution [88 mM NaCl, 1 mM KCl, 15 mM HEPES (pH 7.5), 2.4 mM NaHCO3, 0.41 mM CaCl2, 0.82 mM MgSO4, 0.3 mM Ca(NO3)2, 100 U/ml penicillin and 100 μg/ml strep-tomycin] at 18 °C for 2 days after injection.
(§2) On the day of experiment, all compound dilutions were prepared in a saline solution [115 mM NaCl, 2.5 mM KCl, 10 mM MOPS (pH 7.5), 1.8 mM CaCl2, 0.1 mM MgCl2] and pH adjusted to 7.5 (if needed). Oocytes were placed in a recording chamber continuously perfused with this saline solution, and the compounds were applied in the perfusate. Both voltage and current electrodes were agar-plugged with 3 M KCl with a resistance of 0.2–2.0 MΩ. Oocytes were voltage-clamped at −50 mV (unless otherwise stated) by a Gene Clamp 500B amplifier (Axon Instruments, Union City, CA), while current signals were digitized by a Digidata 1320. Currents were recorded using pCLAMP 10 (Molecular Devices, Sunnyvale, CA). The recordings were performed at room temperature.
In all recordings, the compounds or compound combinations were applied in the bath until the peak current decayed to a steady state (up to 30 sec at the most). […] The functional properties of the modulators at the CLRs were determined by pre-application of the modulator to the perfusate 30 sec and followed by co-application of the modulator and the agonist to the perfusate. In all recordings, washes of 1–5 min were executed between the applications to prevent receptor desensitization, the duration of these washes depending on the kinetics of the respective receptors and the “stickyness” of the respective compounds. […]
(§3) Data analysis of the results from the TEVC recordings were performed using Clampfit software version 10.5 (Molecular Devices, Crawley, UK) and GraphPad Prism version 7.0c (GraphPad Software, Inc. La Jolla, CA). […] I-V relationships were analyzed by fitting the curves with a third order polynomial model. […]

For another assay, the target named is T2, hα1 GlyR (Homo sapiens, UniProt P23415).
T2 sequence (P23415 29-457): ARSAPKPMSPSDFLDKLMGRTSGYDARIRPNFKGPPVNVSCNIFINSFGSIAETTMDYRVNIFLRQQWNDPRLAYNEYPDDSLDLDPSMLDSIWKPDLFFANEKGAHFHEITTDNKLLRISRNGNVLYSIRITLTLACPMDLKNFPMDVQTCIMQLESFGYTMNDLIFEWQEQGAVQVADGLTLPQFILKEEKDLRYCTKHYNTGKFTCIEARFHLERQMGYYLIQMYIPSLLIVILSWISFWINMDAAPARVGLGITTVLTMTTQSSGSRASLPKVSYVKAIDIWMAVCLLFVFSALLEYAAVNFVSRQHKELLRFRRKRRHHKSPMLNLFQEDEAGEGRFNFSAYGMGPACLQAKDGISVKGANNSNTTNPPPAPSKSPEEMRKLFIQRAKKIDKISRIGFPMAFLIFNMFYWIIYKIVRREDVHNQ
Nature of the assay: TEVC selectivity, hα1 GlyR in oocytes. Conditions: 30 μM, 30 s preapplication, 100 μM glycine (EC20–EC40). As to the method: (§4) The cDNAs for the various WT and chimeric CLR subunits were linearized and subsequently transcribed and capped mMessage mMachine T7 RNA transcription kit (Ambion, Waltham, MA). […]
(§5) On the day of experiment, all compound dilutions were prepared in a saline solution [115 mM NaCl, 2.5 mM KCl, 10 mM MOPS (pH 7.5), 1.8 mM CaCl2, 0.1 mM MgCl2] and pH adjusted to 7.5 (if needed). […] Currents were recorded using pCLAMP 10 (Molecular Devices, Sunnyvale, CA). […]
(§6) In all recordings, the compounds or compound combinations were applied in the bath until the peak current decayed to a steady state (up to 30 sec at the most). […] The functional properties of the modulators at the CLRs were determined by pre-application of the modulator to the perfusate 30 sec and followed by co-application of the modulator and the agonist to the perfusate. […]
as §3

Assay [2] has as its target T1, ZAC. Nature of the assay: TEVC recordings, Zn2+-evoked currents at ZAC expressed in Xenopus oocytes. Conditions: for Antagonist activity at ZAC in SAR study (in words): tested at three concentrations (0.3-3-30 μM or 1-10-100 μM); for IC50: steady-state current, read-out: pIC50 ± S.E.M. (converted). As to the method: as §1, §2
In all recordings, the compounds or compound combinations were applied in the bath until the peak current decayed to a steady state (up to 30 sec at the most). […] The functional properties of the modulators at the CLRs were determined by pre-application of the modulator to the perfusate 30 sec and followed by co-application of the modulator and the agonist to the perfusate. In all recordings, washes of 1–5 min were executed between the applications to prevent receptor desensitization, the duration of these washes depending on the kinetics of the respective receptors and the “stickyness” of the respective compounds. […] For the selectivity and mode-of-action studies, the agonist concentrations used for different CLRs or chimeric CLRs were in the EC20–EC40 range (verified on the day of experiment), as this enabled us to investigate both for putative positive and negative receptor modulation exerted by TTFB (hα3β4 nAChR, 3 μM (S)-nicotine; m5-HT3AR, 2 μM 5-HT; hα1 GlyR, 100 μM glycine; hα1β2γ2S GABAAR, 30 μM GABA; m5-HT3A/ZAC, 0.3 μM 5-HT; ZAC/hɑ1-Gly, 2 μM Zn^2+).
Data analysis of the results from the TEVC recordings were performed using Clampfit software version 10.5 (Molecular Devices, Crawley, UK) and GraphPad Prism version 7.0c (GraphPad Software, Inc. La Jolla, CA). Data for the test compounds were normalized to either the maximal agonist-evoked current or to an EC20–EC50-mediated response elicited by the agonist on each oocyte (specified in each case). Unless otherwise stated, data for agonist-induced responses in the presence of the antagonists were extracted from the plateau (or steady-state) of the agonist-evoked current. Concentration-response and concentration-inhibition curves were fitted in GraphPad Prism by nonlinear regression using the equation for sigmoidal dose-response with variable slope. I-V relationships were analyzed by fitting the curves with a third order polynomial model. Each data point represents the mean ± S.E.M. value of recordings performed on at least five oocytes from at least two different batches.

The target of a further assay is hα1β2γ2s GABAAR (Homo sapiens, UniProt P14867+P18507+P47870). Nature of the assay: TEVC selectivity, hα1β2γ2s GABAAR in oocytes. Conditions: 30 μM, 30 s preapplication, 30 μM GABA (EC20–EC40). As to the method:
as §4, §5, §6, §3

Sequence of hα1β2γ2s GABAAR (P14867 28-456): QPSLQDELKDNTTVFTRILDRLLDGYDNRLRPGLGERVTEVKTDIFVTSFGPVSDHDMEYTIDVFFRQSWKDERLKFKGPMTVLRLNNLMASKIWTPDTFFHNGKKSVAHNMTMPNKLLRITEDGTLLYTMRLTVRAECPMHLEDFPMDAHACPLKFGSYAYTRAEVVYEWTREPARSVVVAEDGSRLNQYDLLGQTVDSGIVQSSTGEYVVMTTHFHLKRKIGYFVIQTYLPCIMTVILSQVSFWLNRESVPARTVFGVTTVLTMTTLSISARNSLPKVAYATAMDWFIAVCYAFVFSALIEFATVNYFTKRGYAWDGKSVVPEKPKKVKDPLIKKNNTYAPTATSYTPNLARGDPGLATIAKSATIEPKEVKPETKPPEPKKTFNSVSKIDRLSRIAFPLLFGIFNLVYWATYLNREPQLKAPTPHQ
Sequence of hα1β2γ2s GABAAR (P47870 25-512 limits assumed): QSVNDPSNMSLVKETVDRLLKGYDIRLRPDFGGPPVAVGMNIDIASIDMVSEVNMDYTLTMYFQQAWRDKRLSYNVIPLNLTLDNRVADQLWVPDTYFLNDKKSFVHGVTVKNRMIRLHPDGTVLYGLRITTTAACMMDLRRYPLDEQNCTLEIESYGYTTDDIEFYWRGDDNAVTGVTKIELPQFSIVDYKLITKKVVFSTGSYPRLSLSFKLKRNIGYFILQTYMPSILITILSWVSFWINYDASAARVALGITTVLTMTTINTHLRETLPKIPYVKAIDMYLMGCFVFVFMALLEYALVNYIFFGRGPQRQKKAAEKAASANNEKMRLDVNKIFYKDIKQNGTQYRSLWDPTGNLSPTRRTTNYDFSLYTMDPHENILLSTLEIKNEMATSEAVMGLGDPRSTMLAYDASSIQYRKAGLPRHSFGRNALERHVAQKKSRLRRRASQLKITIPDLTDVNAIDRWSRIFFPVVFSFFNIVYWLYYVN
Sequence of hα1β2γ2s GABAAR (P18507 40-467 isoform P18507-1 limits assumed): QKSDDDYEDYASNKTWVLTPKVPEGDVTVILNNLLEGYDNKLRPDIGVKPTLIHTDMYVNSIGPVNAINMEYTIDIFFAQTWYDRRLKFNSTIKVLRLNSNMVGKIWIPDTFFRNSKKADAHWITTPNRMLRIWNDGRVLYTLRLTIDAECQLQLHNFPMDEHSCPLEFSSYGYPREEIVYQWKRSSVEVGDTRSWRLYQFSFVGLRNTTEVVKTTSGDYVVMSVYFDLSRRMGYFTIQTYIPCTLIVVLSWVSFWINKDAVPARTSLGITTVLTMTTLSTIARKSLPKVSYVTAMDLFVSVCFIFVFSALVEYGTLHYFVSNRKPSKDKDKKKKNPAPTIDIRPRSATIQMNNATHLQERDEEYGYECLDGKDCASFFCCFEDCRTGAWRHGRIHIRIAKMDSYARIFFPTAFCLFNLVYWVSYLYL

As to `CC(C)(C)c1csc(NC(=O)c2cccc(F)c2)n1` [5a, N-(4-(tert-butyl)thiazol-2-yl)-3-fluorobenzamide], on ZAC [1] (TTFB (100 μM)-induced currents, holding potentials −60 mV to +60 mV), the Equilibrium potential is given as −11.5 mV. The IC50 at ZAC [1] (read-out: IC50) is 4.7 µM; at ZAC [1] (read-out: pIC50 ± S.E.M. (converted)) it was 4.79 µM; at ZAC [2] (Zn2+ (1 mM) as agonist, TEVC), 3.02 µM. For the same compound, the “Agonist, antagonist or PAM activity” value at hα1 GlyR and at hα1β2γ2s GABAAR was “did not display significant activity” throughout. Further, at ZAC [2] (10 μM compound, 1 mM Zn2+ as agonist), the “Inhibition of ZAC at 10 μM (in words)” value was “almost complete inhibition”. The “Antagonist activity at ZAC in SAR study (in words)” value on ZAC [2] (1 mM Zn2+ as agonist) is on record as “roughly equipotent with 2b”. Besides, the “Fitted inhibition range, Inhibition (%)” value on ZAC [2] (Zn2+ (1 mM) as agonist, TEVC) worked out at 91 ± 3%. For the same compound, the “Hill coefficient nH ± S.E.M.” value on ZAC [2] (Zn2+ (1 mM) as agonist, TEVC) is listed as −1.5 ± 0.08. For the same compound, at ZAC [2] (Zn2+ (1 mM), full concentration-inhibition curves), the “Extent of inhibition of Zn2+-induced responses (in words)” value was “completely”.

For `COC(=O)c1sc(NC(=O)c2cc(Br)ccc2Cl)nc1C` [compound 1, 2-(5-bromo-2-chlorobenzamido)-4-methylthiazole-5-methyl ester], on ZAC [1] (read-out: IC50), the IC50 was 7.4 µM. At ZAC [2] (1 mM Zn2+ as agonist), the “Antagonist activity at ZAC in SAR study (in words)” value is “weaker antagonists”. On ZAC [2] (Zn2+ (1 mM) as agonist, TEVC), the “Hill coefficient nH ± S.E.M.” value is on record as −1.3 ± 0.13 and the IC50 was 4.07 µM. Further, at ZAC [2] (Zn2+ concentration-response curves in absence and presence of various concentrations of the compound), the Mode of antagonism entry is “largely non-competitive”.

Source of the values: PMC9979163, “Discovery and functional characterization of N-(thiazol-2-yl)-benzamide analogs as the first class of selective antagonists of the Zinc-Activated Channel (ZAC)” (Biochemical pharmacology, 2021).
